The test system of test [1] is Jurkat cell (ATCC TIB-152). Nature of the test: Jurkat cell apoptosis by Fas antibody, WST-1 method. The test is classed as cell-based. The conditions noted are these: apoptosis using Fas antibody, WST-1; for pIC50: Homo sapiens, Jurkat. Here is the method:
The […] inhibitory activity of the inhibitors was determined by subjecting Jurkat cell (ATCC TIB-152) to apoptosis using Fas antibody (Upstate Biotech 05-201) and by detecting the color change according to the WST-1 method known in Francoeur A. M. and Assalian A. (1996) Biochemica 3, 19-25 to observe the amount of alive Jurkat cells when the cells were treated by the inhibitor. Spectra MAX 340 Spectrometer of Molecular Device Co. was used at the absorbance wavelength of 440 nm.

In a further test the target is T1, caspase-8 (Homo sapiens, UniProt Q14790).
T1 construct: p10 and p20 subunits (Thornberry, N. A. et al, Nature, 1992, 356, 768) were expressed in E. coli; made in house; host or cells: E. coli
T1 sequence (Q14790 217-374 limits assumed, species assumed): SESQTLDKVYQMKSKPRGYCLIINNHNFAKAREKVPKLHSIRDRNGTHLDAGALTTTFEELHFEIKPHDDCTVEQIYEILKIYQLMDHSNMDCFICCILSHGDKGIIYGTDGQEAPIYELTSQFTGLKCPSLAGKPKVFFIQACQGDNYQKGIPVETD
T1 sequence (Q14790 385-479 limits assumed, species assumed): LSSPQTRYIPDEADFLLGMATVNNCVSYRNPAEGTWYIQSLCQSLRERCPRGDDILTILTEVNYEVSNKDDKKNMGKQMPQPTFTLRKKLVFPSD
Put plainly: Caspase-8 inhibitory effect (fluorescent substrate AcDEVD-AFC). The test is classed as biochemical. The following applies: 25° C., 50 μM AcDEVD-AFC, 2.1 nM caspase-8; for kinact/KI: pH 7.5, read-out: Caspase-8 Kobs/[I] (converted). How it is done: Caspase-1 and caspase-8 known as cysteine proteases in the form of α2β2 were expressed, purified, and activated by modifying a method known in Thornberry, N. A. et al, Nature, 1992, 356, 768. Thornberry, N. A. Methods in Enzymology, 1994, 244, 615. Walker, N. P. C. et al. Cell, 1994, 78, 343, and caspase-9 was also purified by a similar method, and the inhibitory activity against them was tested. Briefly describing, p10 and p20 subunits (Thornberry, N. A. et al, Nature, 1992, 356, 768) were expressed in E. coli and purified by nickel column and anionic exchange chromatography to give caspase-1, caspase-8 and caspase-9. The fluorescent substrate AcYVAD-AFC for thus obtained caspase-1, AcDEVD-AFC for caspase-8, and AcLEHD-AFC for caspase-9 were used for determining specific activity of the synthesized inhibitors. The enzyme reaction was carried out at 25° C. with various concentrations of the inhibitors in a buffer solution containing 50 mM HEPES(pH 7.50), 10% (w/v) sucrose, 0.1% (w/v) CHAPS, 100 mM NaCl, 1 mM EDTA, and 10 mM DTT in the presence of 50 μM AcYVAD-AFC for 10 nM caspase-1, 50 μM AcDEVD-AFC for 2.1 nM caspase-8, and 150 μM AcLEHD-AFC for 200 nM caspase-9. The inhibitory constants Ki and Kobs of the inhibitors were determined by measuring the reaction velocity with the time lapse using a fluorescent spectrometer and by obtaining the initial rate constant. Ki was calculated from the Lineweaver Burk Plot, and Kobs from the following Equation 1. Kobs=−ln(1−At/Aoo)/t Equation 1
At means cleavate rate (%) at time t, and
Aoo means the maximum cleavage rate (%).
Spectra MAX GeminiXS Fluorescent Spectrometer of Molecular Device Co. was used at the excitation wavelength of 405 nm and the emission wavelength of […].

pIC50: −log10 of the molar value.

Regarding `CC(C)[C@@]1(C(=O)N[C@@H](CC(=O)O)C(=O)COc2cc(C(F)(F)F)nn2-c2ccccc2)CC(c2nccc3ccccc23)=NO1` [Iaa19, (3S)-3-({[(5R)-5-isopropyl-3-(1-isoquinolinyl)-4,5-dihydro-5-isoxazolyl]carbonyl}amino)-4-oxo-5-{[1-phenyl-3-(trifluoromethyl)-1H-pyrazol-5-yl]oxy}pentanoic acid], the “Jurkat cell IC50” value in test [1] was “No Activity”. Moreover, the kinact/KI at caspase-8 is 267 M⁻¹ s⁻¹.
For the compound `CC(C)[C@@]1(C(=O)N[C@@H](CC(=O)O)C(=O)COC2=C(Cc3ccccc3)C(=O)OC2)CC(c2nccc3ccccc23)=NO1` [Iaa20, (3S)-5-[(4-benzyl-5-oxo-2,5-dihydro-3-furanyl)oxy]-3-({[(5R)-5-isopropyl-3-(1-isoquinolinyl)-4,5-dihydro-5-isoxazolyl]carbonyl}amino)-4-oxopentanoic Acid], in test [1], the “Jurkat cell IC50” value is “No Activity”. In addition, at caspase-8, the kinact/KI was 617 M⁻¹ s⁻¹.
`CC(C)C(=O)OCC(=O)[C@H](CC(=O)O)NC(=O)[C@]1(C(C)C)CC(c2nccc3ccccc23)=NO1` [Iaa21, (3S)-5-(isobutyryloxy)-3-({[(5R)-5-isopropyl-3-(1-isoquinolinyl)-4,5-dihydro-5-isoxazolyl]carbonyl}amino)-4-oxopentanoic acid]: the “Jurkat cell IC50” value in test [1] is given as “No Activity”. Further, the “Caspase-8 Kobs/[I]” value on caspase-8 is given as “No Activity”.
As to `CC(C)[C@@]1(C(=O)N[C@@H](CC(=O)O)C(=O)COc2ccccn2)CC(c2nccc3ccccc23)=NO1` [Iaa23, (3S)-3-({[(5R)-5-isopropyl-3-(1-isoquinolinyl)-4,5-dihydro-5-isoxazolyl]carbonyl}amino)-4-oxo-5-(2-pyridinyloxy)pentanoic Acid], the “Jurkat cell IC50” value in test [1] was “No Activity”. The kinact/KI at caspase-8 is 483 M⁻¹ s⁻¹.
As for `CC(C)[C@@]1(C(=O)N[C@@H](CC(=O)O)C(=O)COc2cccc[n+]2C)CC(c2nccc3ccccc23)=NO1.O=S(=O)([O-])C(F)(F)F` [Iaa25, 2-{[(3S)-4-carboxy-3-({[(5R)-5-isopropyl-3-(1-isoquinolinyl)-4,5-dihydro-5-isoxazolyl]carbonyl}amino)-2-oxobutyl]oxy}-1-methylpyridinium trifluoromethanesulfonate], in test [1], the “Jurkat cell IC50” value is listed as “No Activity”. Moreover, at caspase-8, the kinact/KI was 2830 M⁻¹ s⁻¹.
As to `CCC1(C(=O)N[C@@H](CC(=O)O)C(=O)COc2cccc[n+]2C)CC(c2ccccc2C(C)C)=NO1.O=S(=O)([O-])C(F)(F)F` (stereo partly drawn) [Iaa26, 2-{[(3S)-4-carboxy-3-({[5-ethyl-3-(2-isopropylphenyl)-4,5-dihydro-5-isoxazolyl]carbonyl}amino)-2-oxobutyl]oxy}-1-methylpyridinium trifluoromethanesulfonate], in test [1], the “Jurkat cell IC50” value is “No Activity”. Besides, at caspase-8, the kinact/KI is 517 M⁻¹ s⁻¹.
For orientation: pIC50 means −log10 of the IC50, conventionally taken in molar units. In turn, `CC(C)C1(C(=O)NC(CC(=O)O)C(=O)CF)CC(c2cc3cc(Cl)ccc3n2C)=NO1` (stereo not drawn) [Iaa27, 3-({[3-(5-chloro-1-methyl-1H-indol-2-yl)-5-isopropyl-4,5-dihydro-5-isoxazolyl]carbonyl}amino)-5-fluoro-4-oxopentanoic acid] had a pIC50 in test [1] of 5.89. Further, at caspase-8, the kinact/KI is 13700 M⁻¹ s⁻¹.
`Cc1ccc2c(c1)cc(C1=NOC(C(=O)NC(CC(=O)O)C(=O)CF)(C(C)C)C1)n2C` (stereo not drawn) [Iaa28, 3-({[3-(1,5-dimethyl-1H-indol-2-yl)-5-isopropyl-4,5-dihydro-5-isoxazolyl]carbonyl}amino)-5-fluoro-4-oxopentanoic Acid] showed a pIC50 in test [1] of 6.22. In addition, the kinact/KI at caspase-8 was 30000 M⁻¹ s⁻¹.
In turn, `CCC1(C(=O)N[C@@H](CC(=O)O)C(=O)COc2c(F)c(F)cc(F)c2F)CC(c2ccc3ccccc3c2)=NO1` (stereo partly drawn) [Iee, (3S)-3-({[5-ethyl-3-(2-naphthyl)-4,5-dihydro-5-isoxazolyl]carbonyl}amino)-4-oxo-5-(2,3,5,6-tetrafluorophenoxy)pentanoic acid] had a pIC50 in test [1] of 4.49. The kinact/KI at caspase-8 is 3000 M⁻¹ s⁻¹.
`CCC1(C(=O)N[C@@H](CC(=O)O)C(=O)COc2c(F)c(F)cc(F)c2F)CC(c2nccc3ccccc23)=NO1` (stereo partly drawn) [Iff, (3S)-3-({[5-ethyl-3-(1-isoquinolinyl)-4,5-dihydro-5-isoxazolyl]carbonyl}amino)-4-oxo-5-(2,3,5,6-tetrafluorophenoxy)pentanoic acid] gave a pIC50 in test [1] of 5.92. In addition, the kinact/KI at caspase-8 is 8330 M⁻¹ s⁻¹.
The compound `CCC1(C(=O)NC(CC(=O)O)C(=O)CF)CC(c2ccnc3ccccc23)=NO1` (stereo not drawn) [Ijj, 3-({[5-Ethyl-3-(4-quinolinyl)-4,5-dihydro-5-isoxazolyl]carbonyl}amino)-5-fluoro-4-oxopentanoic acid] gave a pIC50 in test [1] of 5.33. The kinact/KI on caspase-8 is 3170 M⁻¹ s⁻¹.
The matching figures for `CCC1(C(=O)NC(CC(=O)O)C(=O)CF)CC(c2cc3ccccc3s2)=NO1` (stereo not drawn) [Ikk, 3-({[3-(benzothiophen-2-yl)-5-ethyl-4,5-dihydro-5-isoxazolyl]carbonyl}amino)-5-fluoro-4-oxopentanoic acid]: 5.96 and 2000 M⁻¹ s⁻¹.
On to `CCC1(C(=O)N[C@@H](CC(=O)O)C(=O)COc2c(F)c(F)cc(F)c2F)CC(c2c(C)c3ccccc3n2C)=NO1` (stereo partly drawn) [Ill, (3S)-3-({[3-(1,3-dimethyl-1H-indol-2-yl)-5-ethyl-4,5-dihydro-5-isoxazolyl]carbonyl}amino)-4-oxo-5-(2,3,5,6-tetrafluorophenoxy)pentanoic acid], for which the pIC50 in test [1] is 4.41. In addition, the kinact/KI at caspase-8 was 2170 M⁻¹ s⁻¹.
`CCC1(C(=O)NC(CC(=O)O)C(=O)CF)CC(c2c(C)c3ccccc3n2C)=NO1` (stereo not drawn) [Imm, 3-({[3-(1,3-Dimethyl-1H-indol-2-yl)-5-ethyl-4,5-dihydro-5-isoxazolyl]carbonyl}amino)-5-fluoro-4-oxopentanoic acid] had a negative-log IC50 (pIC50) in test [1] of 5.70. In addition, on caspase-8, the kinact/KI is 2670 M⁻¹ s⁻¹.
As for `CCC1(C(=O)N[C@@H](CC(=O)O)C(=O)COc2c(F)c(F)cc(F)c2F)CC(Cc2cccc3ccccc23)=NO1` (stereo partly drawn) [Inn, (3S)-3-({[5-ethyl-3-(1-naphthylmethyl)-4,5-dihydro-5-isoxazolyl]carbonyl}amino)-4-oxo-5-(2,3,5,6-tetrafluorophenoxy)pentanoic acid], the pIC50 in test [1] is 5.19. In addition, the kinact/KI on caspase-8 is 4330 M⁻¹ s⁻¹.
Compound `CCC1(C(=O)N[C@@H](CC(=O)O)C(=O)COC(=O)c2c(Cl)cccc2Cl)CC(CCc2cccc3ccccc23)=NO1` (stereo partly drawn) [Ioo, (3S)-5-[(2,6-dichlorobenzoyl)oxy]-3-[({5-ethyl-3-[2-(1-naphthyl)ethyl]-4,5-dihydro-5-isoxazolyl}carbonyl)amino]-4-oxopentanoic acid] showed a pIC50 in test [1] of 4.30. In addition, the kinact/KI on caspase-8 was 333 M⁻¹ s⁻¹.
In turn, `CCC[C@@]1(C(=O)NC(CC(=O)O)C(=O)CF)CC(c2nccc3ccccc23)=NO1` (stereo partly drawn) [Itt, 5-Fluoro-3-({[(5S)-3-(1-isoquinolinyl)-5-propyl-4,5-dihydro-5-isoxazolyl]carbonyl}amino)-4-oxopentanoic acid] had a pIC50 in test [1] of 6.80. Also, the kinact/KI on caspase-8 was 7170 M⁻¹ s⁻¹.
In turn, `CC[C@@]1(C(=O)NC(CC(=O)O)C(=O)CF)CC(c2cccc3ccccc23)=NO1` (stereo partly drawn) [Iuu, 3-({[(5S)-5-ethyl-3-(1-naphthyl)-4,5-dihydro-5-isoxazolyl]carbonyl}amino)-5-fluoro-4-oxopentanoic acid] had a pIC50 in test [1] of 6.01. In addition, the kinact/KI at caspase-8 was 4830 M⁻¹ s⁻¹.
Regarding `CC[C@@]1(C(=O)NC(CC(=O)O)C(=O)CF)CC(c2ccc3ccccc3n2)=NO1` (stereo partly drawn) [Ivv, 3-({[(5S)-5-ethyl-3-(2-quinolinyl)-4,5-dihydro-5-isoxazolyl]carbonyl}amino)-5-fluoro-4-oxopentanoic acid], the pIC50 in test [1] is 6.82. Moreover, the kinact/KI at caspase-8 is 25000 M⁻¹ s⁻¹.
As for `CC[C@]1(C(=O)NC(CC(=O)O)C(=O)CF)CC(c2cc3ccccc3cn2)=NO1` (stereo partly drawn) [Iww, 3-({[(5R)-5-ethyl-3-(3-isoquinolinyl)-4,5-dihydro-5-isoxazolyl]carbonyl}amino)-5-fluoro-4-oxopentanoic Acid], the negative-log IC50 (pIC50) in test [1] is 5.72. In addition, the kinact/KI at caspase-8 was 18300 M⁻¹ s⁻¹.
Consider `CCC1(C(=O)NC(CC(=O)O)C(=O)CF)CC(c2cccc3cccnc23)=NO1` (stereo not drawn) [Ixx, 3-({[5-ethyl-3-(8-quinolinyl)-4,5-dihydro-5-isoxazolyl]carbonyl}amino)-5-fluoro-4-oxopentanoic acid], for which the pIC50 in test [1] is 4.58. Also, the kinact/KI on caspase-8 is 667 M⁻¹ s⁻¹.

These data come from patent US7557133B2, “Caspase inhibitors containing isoxazoline ring” (LG Life Sciences Ltd., priority 2003, dated 2009).
